Results on 42 compounds are retold here after ChEMBL document CHEMBL1157036, “QSPR modeling of octanol/water partition coefficient of antineoplastic agents by balance of correlations” (Eur J Med Chem, 2010).

Structures are written as SMILES.

Assay in one data set: not given
The conditions noted are these: octanol/water.
In general, logP refers to the decadic logarithm of the partition coefficient of the neutral form, usually between octanol and water. Regarding `CN(C)/N=N/c1[nH]cnc1C(N)=O` [DACARBAZINE], the logP is reported as -1.6. Consider `Nc1nc2[nH]cc(CCc3ccc(C(=O)N[C@@H](CCC(=O)O)C(=O)O)cc3)c2c(=O)[nH]1` [PEMETREXED], for which the logP is listed as -1.5. On the same count and under the same terms, with `Cn1nnc2c(C(N)=O)ncn2c1=O` [TEMOZOLOMIDE] the figure was -2.8. Same read-out and setting: with `COc1cc([C@@H]2c3cc4c(cc3[C@@H](O[C@@H]3O[C@@H]5CO[C@@H](c6cccs6)O[C@H]5[C@H](O)[C@H]3O)[C@H]3COC(=O)[C@H]23)OCO4)cc(OC)c1O` [TENIPOSIDE] the figure was 1.5; with `CC[C@]1(O)C[C@@H]2CN(CCc3c([nH]c4ccccc34)[C@@](C(=O)OC)(c3cc4c(cc3OC)N(C)[C@H]3[C@@](O)(C(=O)OC)[C@H](OC(C)=O)[C@]5(CC)C=CCN6CC[C@]43[C@@H]65)C2)C1` [VINBLASTINE], 3.9.

Another data set in a line: physchem. To be noted: octanol/water.
Description: Octanol-water partition coefficient, log P of the compound
With `N[C@@H](Cc1ccc(N(CCCl)CCCl)cc1)C(=O)O`, the logP is 0.4. The same measure, in the same setting: with `CN(C)c1nc(N(C)C)nc(N(C)C)n1` [ALTRETAMINE] the figure was 1.7; with `NCC(=O)CCC(=O)O` [AMINOLEVULINIC ACID], -1.5. The same measure, in the same setting: with `COc1cc(NS(C)(=O)=O)ccc1Nc1c2ccccc2nc2ccccc12` [AMSACRINE] the figure was 3.8; with `O=C1CN2Cc3c(ccc(Cl)c3Cl)N=C2N1` [ANAGRELIDE], 2.4; with `C=C(c1ccc(C(=O)O)cc1)c1cc2c(cc1C)C(C)(C)CCC2(C)C` [BEXAROTENE], 6.9.

As to `CS(=O)(=O)OCCCCOS(C)(=O)=O` [BUSULFAN], the logP was -0.3.

As for `CCCCCOC(=O)Nc1nc(=O)n([C@@H]2O[C@H](C)[C@@H](O)[C@H]2O)cc1F` [CAPECITABINE], the logP stood at 0.4. The same measure, in the same setting: next, `Cc1ccc(-c2cc(C(F)(F)F)nn2-c2ccc(S(N)(=O)=O)cc2)cc1` [CELECOXIB]: 3.9; `O=C(O)CCCc1ccc(N(CCCl)CCCl)cc1` [CHLORAMBUCIL]: 3.9; `Nc1nc(Cl)nc2c1ncn2[C@@H]1O[C@H](CO)[C@@H](O)[C@@H]1F` [CLOFARABINE]: 0. The same measure, in the same setting: next, `O=P1(N(CCCl)CCCl)NCCCO1` (configuration not stated) [CYCLOPHOSPHAMIDE ANHYDROUS]: 0.8.

Consider `COc1cccc2c1C(=O)c1c(O)c3c(c(O)c1C2=O)C[C@@](O)(C(C)=O)C[C@@H]3O[C@H]1C[C@H](N)[C@H](O)[C@H](C)O1` [DAUNORUBICIN], for which the logP is 0.1. For `COc1cccc2c1C(=O)c1c(O)c3c(c(O)c1C2=O)C[C@@](O)(C(=O)CO)C[C@@H]3O[C@H]1C[C@H](N)[C@H](O)[C@H](C)O1` [DOXORUBICIN], the logP was -0.5. Consider `COc1cccc2c1C(=O)c1c(O)c3c(c(O)c1C2=O)C[C@@](O)(C(=O)CO)C[C@@H]3O[C@H]1C[C@H](N)[C@@H](O)[C@H](C)O1` [EPIRUBICIN], for which the logP is -0.5.

In the case of `C[C@]12CC[C@@H]3c4ccc(OC(=O)N(CCCl)CCCl)cc4CC[C@H]3[C@@H]1CC[C@@H]2O` [ESTRAMUSTINE], the logP worked out at 5.7. Consider `Nc1nc(F)nc2c1ncn2[C@@H]1O[C@H](CO)[C@@H](O)[C@@H]1O` [FLUDARABINE], for which the logP was -2.8. Same read-out and setting: next, `O=c1[nH]cc(F)c(=O)[nH]1` [FLUOROURACIL]: -0.8. Same read-out and setting: next, `Nc1ccn([C@@H]2O[C@H](CO)[C@@H](O)C2(F)F)c(=O)n1` [GEMCITABINE]: -1.4; `CC(=O)[C@]1(O)Cc2c(O)c3c(c(O)c2[C@@H](O[C@H]2C[C@H](N)[C@H](O)[C@H](C)O2)C1)C(=O)c1ccccc1C3=O` [IDARUBICIN]: 0.2. Same read-out and setting: with `O=P1(NCCCl)OCCCN1CCCl` (configuration not stated) [IFOSFAMIDE] the figure was 0.8.

`O=NN(CCCl)C(=O)NC1CCCCC1` [LOMUSTINE] had a logP of 3.

As to `Sc1ncnc2nc[nH]c12` [MERCAPTOPURINE ANHYDROUS], the logP was -0.4. The same measure, in the same setting: next, `CN(Cc1cnc2nc(N)nc(N)c2n1)c1ccc(C(=O)N[C@@H](CCC(=O)O)C(=O)O)cc1` [METHOTREXATE]: -2.2; `COC(=O)CCC(=O)CN` [METHYL AMINOLEVULINATE]: -1.2; `Clc1ccc(C(c2ccccc2Cl)C(Cl)Cl)cc1` (configuration not stated) [MITOTANE]: 6. `O=C1c2c(O)ccc(O)c2C(=O)c2c(NCCNCCO)ccc(NCCNCCO)c21` [MITOXANTRONE]: the logP was -3.1. The same measure, in the same setting: next, `CC(=O)O[C@H]1C(=O)[C@@]2(C)[C@H]([C@H](OC(=O)c3ccccc3)[C@]3(O)C[C@H](OC(=O)[C@H](O)[C@@H](NC(=O)c4ccccc4)c4ccccc4)C(C)=C1C3(C)C)[C@]1(OC(C)=O)CO[C@@H]1C[C@@H]2O` [PACLITAXEL]: 3; `OC[C@H]1O[C@@H](n2cnc3c2NC=NC[C@H]3O)C[C@@H]1O` [PENTOSTATIN]: -1.1. The same measure, in the same setting: next, `O=C(CCBr)N1CCN(C(=O)CCBr)CC1` [PIPOBROMAN]: 1.1. Consider `Cc1nc2ccc(CN(C)c3ccc(C(=O)N[C@@H](CCC(=O)O)C(=O)O)s3)cc2c(=O)[nH]1` [RALTITREXED], for which the logP is -1.2. Still for that read-out and setting: next, `CN(N=O)C(=O)N[C@@H](C=O)[C@@H](O)[C@H](O)[C@H](O)CO` [STREPTOZOCIN]: -1.7. Turning to `Nc1nc2nc[nH]c2c(=S)[nH]1` [THIOGUANINE], the logP was -0.7. On the same count and under the same terms, with `CC[C@@]1(O)C(=O)OCc2c1cc1n(c2=O)Cc2cc3c(CN(C)C)c(O)ccc3nc2-1` [TOPOTECAN] the figure was 0.8.

On to `CCCCC(=O)OCC(=O)[C@]1(O)Cc2c(O)c3c(c(O)c2[C@@H](O[C@H]2C[C@H](NC(=O)C(F)(F)F)[C@H](O)[C@H](C)O2)C1)C(=O)c1c(OC)cccc1C3=O` [VALRUBICIN], for which the logP came to 2.2. On the same count and under the same terms, with `CC[C@]1(O)C[C@@H]2CN(CCc3c([nH]c4ccccc34)[C@@](C(=O)OC)(c3cc4c(cc3OC)N(C)[C@H]3[C@@](O)(C(N)=O)[C@H](O)[C@]5(CC)C=CCN6CC[C@]43[C@@H]65)C2)C1` [VINDESINE] the figure was 2.9.

The compound `CCC1=C[C@@H]2CN(C1)Cc1c([nH]c3ccccc13)[C@@](C(=O)OC)(c1cc3c(cc1OC)N(C)[C@H]1[C@@](O)(C(=O)OC)[C@H](OC(C)=O)[C@]4(CC)C=CCN5CC[C@]31[C@@H]54)C2` [VINORELBINE] displayed a logP of 4.
